Species on record: Rattus norvegicus
Test: Open TG-GATES - Regimen: Daily Repeat
Assay type: toxicity, organism-based, Sprague-Dawley
Design: regimen Daily Repeat, gender Male, age 6 weeks
Conditions: in vivo, po, route gavage; for APTT / Bas / Eos / Fbg / Hb / Ht / Lym / MCH / MCHC / MCV / Mono / Neu / PT / Plat / RBC / Ret / WBC: tissue Blood; for KIDNEY_L / KIDNEY_R / KIDNEY_TOTAL: tissue Kidney; for LIVER: tissue Liver; for A/G / ALP / ALT / AST / BUN / CRE / Ca / Cl / DBIL / GLC / IP / K / LDH / Na / PL / RALB / TBIL / TC / TG / TP / gamma-GTP: tissue Plasma
[1] = 80 mg/kg, 72 h, dose level Middle, time 3 day
[2] = 80 mg/kg, […], dose level Middle, time 7 day
[3] = 80 mg/kg, […], dose level Middle, time 14 day
[4] = 80 mg/kg, […], dose level Middle, time 28 day
[5] = 250 mg/kg, 72 h, dose level High, time 3 day
[6] = 250 mg/kg, […], dose level High, time 7 day
[7] = 250 mg/kg, […], dose level High, time 14 day
[8] = 250 mg/kg, […], dose level High, time 28 day

## CCSCC[C@H](N)C(=O)O [ETHIONINE]
[1]
  TERMINAL_BW: 221.5 g
  APTT: 24.9 s
  Bas: 0%
  Eos: 1%
  Fbg: 201 mg/dL
  Hb: 14 g/dL
  Ht: 41.5%
  Lym: 85.4%
  MCH: 20.9 pg
  MCHC: 33.7%
  MCV: 62.1 fL
  Mono: 2.8%
  Neu: 9.6%
  PT: 15.3 s
  Plat: 123 x10_4/uL
  RBC: 669.2 x10_4/ul
  Ret: 4.8%
  WBC: 93.2 x10_2/uL
  KIDNEY_L: 1 g
  KIDNEY_R: 1 g
  KIDNEY_TOTAL: 2 g
  LIVER: 9.7 g
  A/G: 1.8
  ALP: 983 IU/L
  ALT: 37.8 IU/L
  AST: 65.6 IU/L
  BUN: 17.2 mg/dL
  CRE: 0.4 mg/dL
  Ca: 10.5 mg/dL
  Cl: 102 meq/L
  DBIL: 0.088 mg/dL
  GLC: 197.8 mg/dL
  IP: 8.2 mg/dL
  K: 3.8 meq/L
  LDH: 211 IU/L
  Na: 141.6 meq/L
  PL: 118.2 mg/dL
  RALB: 3.6 g/dL
  TBIL: 0.2 mg/dL
  TC: 47.2 mg/dL
  TG: 94.8 mg/dL
  TP: 5.7 g/dL
  gamma-GTP: 1.2 IU/L
[2]
  TERMINAL_BW: 252.3 g
  APTT: 25.7 s
  Bas: 0%
  Eos: 0.8%
  Fbg: 216.4 mg/dL
  Hb: 14.2 g/dL
  Ht: 41.8%
  Lym: 81.8%
  MCH: 20.8 pg
  MCHC: 33.9%
  MCV: 61.4 fL
  Mono: 2%
  Neu: 14.4%
  PT: 15 s
  Plat: 120.9 x10_4/uL
  RBC: 681.2 x10_4/ul
  Ret: 3.1%
  WBC: 117.7 x10_2/uL
  KIDNEY_L: 1.1 g
  KIDNEY_R: 1.1 g
  KIDNEY_TOTAL: 2.2 g
  LIVER: 10.5 g
  A/G: 1.8
  ALP: 1213.6 IU/L
  ALT: 37.4 IU/L
  AST: 68.6 IU/L
  BUN: 17.6 mg/dL
  CRE: 0.4 mg/dL
  Ca: 10.4 mg/dL
  Cl: 103.6 meq/L
  DBIL: 0.1 mg/dL
  GLC: 186.6 mg/dL
  IP: 7.3 mg/dL
  K: 3.8 meq/L
  LDH: 193.2 IU/L
  Na: 141.6 meq/L
  PL: 126.6 mg/dL
  RALB: 3.6 g/dL
  TBIL: 0.2 mg/dL
  TC: 46.4 mg/dL
  TG: 122.6 mg/dL
  TP: 5.5 g/dL
  gamma-GTP: 0.8 IU/L
[3]
  TERMINAL_BW: 307.2 g
  APTT: 24 s
  Bas: 0%
  Eos: 1%
  Fbg: 214.6 mg/dL
  Hb: 14.4 g/dL
  Ht: 42%
  Lym: 73%
  MCH: 20.3 pg
  MCHC: 34.1%
  MCV: 59.4 fL
  Mono: 3%
  Neu: 23%
  PT: 14.2 s
  Plat: 121.6 x10_4/uL
  RBC: 708.4 x10_4/ul
  Ret: 4.1%
  WBC: 143.7 x10_2/uL
  KIDNEY_L: 1.2 g
  KIDNEY_R: 1.2 g
  KIDNEY_TOTAL: 2.3 g
  LIVER: 13.2 g
  A/G: 1.8
  ALP: 894 IU/L
  ALT: 33 IU/L
  AST: 58 IU/L
  BUN: 16.6 mg/dL
  CRE: 0.4 mg/dL
  Ca: 10.4 mg/dL
  Cl: 102.4 meq/L
  DBIL: 0.098 mg/dL
  GLC: 201.8 mg/dL
  IP: 7.3 mg/dL
  K: 3.4 meq/L
  LDH: 187.8 IU/L
  Na: 141.4 meq/L
  PL: 141.8 mg/dL
  RALB: 3.8 g/dL
  TBIL: 0.2 mg/dL
  TC: 55.4 mg/dL
  TG: 128 mg/dL
  TP: 5.9 g/dL
  gamma-GTP: 0.8 IU/L
[4]
  TERMINAL_BW: 355.5 g
  APTT: 23.9 s
  Bas: 0%
  Eos: 0.6%
  Fbg: 197 mg/dL
  Hb: 15 g/dL
  Ht: 43.1%
  Lym: 78.6%
  MCH: 19.7 pg
  MCHC: 34.9%
  MCV: 56.3 fL
  Mono: 2.4%
  Neu: 17.6%
  PT: 14.6 s
  Plat: 114.3 x10_4/uL
  RBC: 765.2 x10_4/ul
  Ret: 1.8%
  WBC: 115.9 x10_2/uL
  KIDNEY_L: 1.3 g
  KIDNEY_R: 1.3 g
  KIDNEY_TOTAL: 2.7 g
  LIVER: 14.1 g
  A/G: 1.7
  ALP: 747.8 IU/L
  ALT: 30.2 IU/L
  AST: 55.8 IU/L
  BUN: 19.4 mg/dL
  CRE: 0.5 mg/dL
  Ca: 10.2 mg/dL
  Cl: 105.8 meq/L
  DBIL: 0.1 mg/dL
  GLC: 187.4 mg/dL
  IP: 6.7 mg/dL
  K: 3.7 meq/L
  LDH: 220.4 IU/L
  Na: 142.6 meq/L
  PL: 138.6 mg/dL
  RALB: 3.8 g/dL
  TBIL: 0.2 mg/dL
  TC: 57.4 mg/dL
  TG: 124 mg/dL
  TP: 6 g/dL
  gamma-GTP: 1 IU/L
[5]
  TERMINAL_BW: 209.1 g
  APTT: 27.3 s
  Bas: 0%
  Eos: 1%
  Fbg: 204.2 mg/dL
  Hb: 15.1 g/dL
  Ht: 43.9%
  Lym: 87%
  MCH: 21.5 pg
  MCHC: 34.3%
  MCV: 62.9 fL
  Mono: 2.4%
  Neu: 8.8%
  PT: 16.2 s
  Plat: 114.9 x10_4/uL
  RBC: 698.8 x10_4/ul
  Ret: 4%
  WBC: 108.9 x10_2/uL
  KIDNEY_L: 0.9 g
  KIDNEY_R: 0.9 g
  KIDNEY_TOTAL: 1.9 g
  LIVER: 8.7 g
  A/G: 1.9
  ALP: 1059.2 IU/L
  ALT: 42 IU/L
  AST: 73.2 IU/L
  BUN: 15.8 mg/dL
  CRE: 0.4 mg/dL
  Ca: 10.4 mg/dL
  Cl: 102 meq/L
  DBIL: 0.09 mg/dL
  GLC: 183.8 mg/dL
  IP: 8.3 mg/dL
  K: 3.8 meq/L
  LDH: 236.4 IU/L
  Na: 140 meq/L
  PL: 94 mg/dL
  RALB: 3.5 g/dL
  TBIL: 0.2 mg/dL
  TC: 36.6 mg/dL
  TG: 40.4 mg/dL
  TP: 5.5 g/dL
  gamma-GTP: 0.8 IU/L
[6]
  TERMINAL_BW: 226 g
  APTT: 28 s
  Bas: 0%
  Eos: 0.4%
  Fbg: 210.4 mg/dL
  Hb: 15.1 g/dL
  Ht: 44.3%
  Lym: 83.4%
  MCH: 20.9 pg
  MCHC: 34%
  MCV: 61.6 fL
  Mono: 2.2%
  Neu: 13.6%
  PT: 15.5 s
  Plat: 87.8 x10_4/uL
  RBC: 720.4 x10_4/ul
  Ret: 1%
  WBC: 122.2 x10_2/uL
  KIDNEY_L: 1 g
  KIDNEY_R: 1 g
  KIDNEY_TOTAL: 2 g
  LIVER: 9.3 g
  A/G: 2
  ALP: 1237 IU/L
  ALT: 44 IU/L
  AST: 62.8 IU/L
  BUN: 16.6 mg/dL
  CRE: 0.4 mg/dL
  Ca: 10.4 mg/dL
  Cl: 105.2 meq/L
  DBIL: 0.1 mg/dL
  GLC: 178.4 mg/dL
  IP: 5.9 mg/dL
  K: 3.7 meq/L
  LDH: 214.2 IU/L
  Na: 141.8 meq/L
  PL: 118.2 mg/dL
  RALB: 3.5 g/dL
  TBIL: 0.2 mg/dL
  TC: 45.8 mg/dL
  TG: 76.4 mg/dL
  TP: 5.3 g/dL
  gamma-GTP: 1 IU/L
[7]
  TERMINAL_BW: 268.3 g
  APTT: 26 s
  Bas: 0%
  Eos: 0.6%
  Fbg: 205.4 mg/dL
  Hb: 14.3 g/dL
  Ht: 42.2%
  Lym: 75.8%
  MCH: 19.9 pg
  MCHC: 34%
  MCV: 58.5 fL
  Mono: 2.6%
  Neu: 20.2%
  PT: 15.4 s
  Plat: 100.5 x10_4/uL
  RBC: 722.2 x10_4/ul
  Ret: 3.8%
  WBC: 133.6 x10_2/uL
  KIDNEY_L: 1.1 g
  KIDNEY_R: 1.1 g
  KIDNEY_TOTAL: 2.3 g
  LIVER: 10.5 g
  A/G: 1.9
  ALP: 959.2 IU/L
  ALT: 33.2 IU/L
  AST: 58 IU/L
  BUN: 18.8 mg/dL
  CRE: 0.4 mg/dL
  Ca: 10.2 mg/dL
  Cl: 103 meq/L
  DBIL: 0.1 mg/dL
  GLC: 189.8 mg/dL
  IP: 6.9 mg/dL
  K: 3.6 meq/L
  LDH: 196 IU/L
  Na: 142 meq/L
  PL: 135.8 mg/dL
  RALB: 3.5 g/dL
  TBIL: 0.2 mg/dL
  TC: 57.4 mg/dL
  TG: 80.2 mg/dL
  TP: 5.4 g/dL
  gamma-GTP: 0.8 IU/L
[8]
  TERMINAL_BW: 314.2 g
  APTT: 27.8 s
  Bas: 0%
  Eos: 0.6%
  Fbg: 200.6 mg/dL
  Hb: 15.9 g/dL
  Ht: 45.4%
  Lym: 77%
  MCH: 19.4 pg
  MCHC: 35%
  MCV: 55.4 fL
  Mono: 2.2%
  Neu: 19.6%
  PT: 16.1 s
  Plat: 95.1 x10_4/uL
  RBC: 820.2 x10_4/ul
  Ret: 1.6%
  WBC: 91.7 x10_2/uL
  KIDNEY_L: 1.1 g
  KIDNEY_R: 1.1 g
  KIDNEY_TOTAL: 2.3 g
  LIVER: 11.6 g
  A/G: 1.9
  ALP: 934.8 IU/L
  ALT: 34 IU/L
  AST: 62.4 IU/L
  BUN: 19.2 mg/dL
  CRE: 0.5 mg/dL
  Ca: 10 mg/dL
  Cl: 105.2 meq/L
  DBIL: 0.1 mg/dL
  GLC: 177 mg/dL
  IP: 5.6 mg/dL
  K: 3.5 meq/L
  LDH: 271.6 IU/L
  Na: 143 meq/L
  PL: 126.4 mg/dL
  RALB: 3.8 g/dL
  TBIL: 0.2 mg/dL
  TC: 49.2 mg/dL
  TG: 101.4 mg/dL
  TP: 5.8 g/dL
  gamma-GTP: 1 IU/L

Reference: ChEMBL document CHEMBL3885861, “Open TG-GATES”
